Measured values reported in the kinase profiling compilation of Christmann-Franck et al. (2016).

What was measured:
Test in all cases: radiometric filter-binding kinase assay
[1] = molecular target: MAPK12 (human) (UniProt P53778)
[2] = molecular target: DYRK1A (human) (UniProt Q13627)
[3] = molecular target: MAP3K11 (human) (UniProt Q16584)
[4] = molecular target: MAPK8 (human) (UniProt P45983)
[5] = molecular target: MAPKAPK5 (human) (UniProt Q8IW41)
[6] = molecular target: MAPK14 (human) (UniProt Q16539)
MAPK14 (human), sequence (Q16539 whole entry, looked up): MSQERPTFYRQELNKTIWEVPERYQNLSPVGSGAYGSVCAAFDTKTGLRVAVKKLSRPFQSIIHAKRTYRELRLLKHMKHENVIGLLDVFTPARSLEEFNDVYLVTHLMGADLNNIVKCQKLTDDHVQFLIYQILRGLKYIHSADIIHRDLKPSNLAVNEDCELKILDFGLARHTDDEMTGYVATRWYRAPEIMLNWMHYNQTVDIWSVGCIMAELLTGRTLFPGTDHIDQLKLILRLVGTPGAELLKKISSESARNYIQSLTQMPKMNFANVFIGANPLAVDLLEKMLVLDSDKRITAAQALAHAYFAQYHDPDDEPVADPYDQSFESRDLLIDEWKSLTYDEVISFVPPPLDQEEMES

[7] = molecular target: PIM1 (human) (UniProt P11309)
[8] = molecular target: IKBKE (human) (UniProt Q14164)
[9] = molecular target: MKNK2 (human) (UniProt Q9HBH9)
[10] = molecular target: YES1 (human) (UniProt P07947)
[11] = molecular target: EPHA4 (human) (UniProt P54764)
EPHA4 (human), sequence (P54764 whole entry, looked up): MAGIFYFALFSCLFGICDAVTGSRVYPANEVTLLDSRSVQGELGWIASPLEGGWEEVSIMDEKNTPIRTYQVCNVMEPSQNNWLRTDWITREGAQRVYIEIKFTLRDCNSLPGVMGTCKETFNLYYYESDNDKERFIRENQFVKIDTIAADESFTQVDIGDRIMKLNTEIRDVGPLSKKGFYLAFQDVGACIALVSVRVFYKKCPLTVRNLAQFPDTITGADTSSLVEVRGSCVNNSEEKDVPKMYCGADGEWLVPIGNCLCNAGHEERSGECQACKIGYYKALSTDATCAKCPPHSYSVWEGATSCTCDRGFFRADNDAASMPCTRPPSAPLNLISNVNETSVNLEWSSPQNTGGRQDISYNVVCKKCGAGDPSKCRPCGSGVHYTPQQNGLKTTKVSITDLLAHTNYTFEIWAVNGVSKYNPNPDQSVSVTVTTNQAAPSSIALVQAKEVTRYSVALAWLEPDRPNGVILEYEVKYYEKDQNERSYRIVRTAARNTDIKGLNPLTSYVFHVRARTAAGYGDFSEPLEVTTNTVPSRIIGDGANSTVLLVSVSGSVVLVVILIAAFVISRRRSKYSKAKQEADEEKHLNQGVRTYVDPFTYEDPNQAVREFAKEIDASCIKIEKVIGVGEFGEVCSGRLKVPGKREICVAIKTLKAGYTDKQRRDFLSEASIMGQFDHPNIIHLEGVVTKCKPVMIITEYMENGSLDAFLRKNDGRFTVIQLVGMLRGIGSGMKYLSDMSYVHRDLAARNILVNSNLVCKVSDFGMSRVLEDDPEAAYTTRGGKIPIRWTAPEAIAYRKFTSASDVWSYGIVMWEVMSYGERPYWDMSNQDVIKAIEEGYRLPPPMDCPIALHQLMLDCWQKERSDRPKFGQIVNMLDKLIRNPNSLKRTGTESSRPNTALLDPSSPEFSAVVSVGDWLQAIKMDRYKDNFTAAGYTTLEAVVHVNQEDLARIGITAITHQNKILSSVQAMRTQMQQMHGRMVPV

[12] = molecular target: RIPK2 (human) (UniProt O43353)
[13] = molecular target: MAPKAPK2 (human) (UniProt P49137)
[14] = molecular target: CaMK1 (human) (UniProt Q14012)
CaMK1 (human), sequence (Q14012 whole entry, looked up): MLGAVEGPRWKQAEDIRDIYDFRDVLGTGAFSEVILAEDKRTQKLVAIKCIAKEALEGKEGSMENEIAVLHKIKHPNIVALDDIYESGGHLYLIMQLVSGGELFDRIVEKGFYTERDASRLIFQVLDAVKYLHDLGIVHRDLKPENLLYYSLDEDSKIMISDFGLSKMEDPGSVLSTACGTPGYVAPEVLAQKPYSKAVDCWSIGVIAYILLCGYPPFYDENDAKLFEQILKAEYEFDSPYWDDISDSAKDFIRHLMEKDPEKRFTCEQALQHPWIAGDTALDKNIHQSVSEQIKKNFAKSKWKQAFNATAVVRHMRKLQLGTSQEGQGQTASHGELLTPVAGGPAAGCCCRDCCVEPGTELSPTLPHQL

[15] = molecular target: MELK (human) (UniProt Q14680)
[16] = molecular target: MINK1 (human) (UniProt Q8N4C8)
[17] = molecular target: MAP3K7 TAB1 (human) (UniProt Q15750+O43318)
[18] = molecular target: BTK (human) (UniProt Q06187)
[19] = molecular target: BRSK1 (human) (UniProt Q8TDC3)
[20] = molecular target: CSK (human) (UniProt P41240)
CSK (human), sequence (P41240 whole entry, looked up): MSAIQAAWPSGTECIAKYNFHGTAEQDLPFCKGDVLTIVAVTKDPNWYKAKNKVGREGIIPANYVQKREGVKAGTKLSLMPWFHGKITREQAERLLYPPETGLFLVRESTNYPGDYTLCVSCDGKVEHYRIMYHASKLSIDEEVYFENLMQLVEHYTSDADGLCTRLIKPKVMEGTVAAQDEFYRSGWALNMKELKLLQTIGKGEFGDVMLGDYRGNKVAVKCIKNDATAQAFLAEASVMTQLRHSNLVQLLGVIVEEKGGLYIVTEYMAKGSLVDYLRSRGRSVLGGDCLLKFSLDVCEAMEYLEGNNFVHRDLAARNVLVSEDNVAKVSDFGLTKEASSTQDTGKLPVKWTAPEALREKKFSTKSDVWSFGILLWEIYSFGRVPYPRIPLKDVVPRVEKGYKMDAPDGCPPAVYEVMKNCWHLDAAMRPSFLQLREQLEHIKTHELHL

[21] = molecular target: IGF1R (human) (UniProt P08069)
[22] = molecular target: HIPK2 (human) (UniProt Q9H2X6)
[23] = molecular target: MAP2K2 (human) (UniProt P36507)
[24] = molecular target: DYRK2 (human) (UniProt Q92630)
[25] = molecular target: PAK4 (human) (UniProt O96013)
[26] = molecular target: MAPK9 (human) (UniProt P45984)
MAPK9 (human), sequence (P45984 whole entry, looked up): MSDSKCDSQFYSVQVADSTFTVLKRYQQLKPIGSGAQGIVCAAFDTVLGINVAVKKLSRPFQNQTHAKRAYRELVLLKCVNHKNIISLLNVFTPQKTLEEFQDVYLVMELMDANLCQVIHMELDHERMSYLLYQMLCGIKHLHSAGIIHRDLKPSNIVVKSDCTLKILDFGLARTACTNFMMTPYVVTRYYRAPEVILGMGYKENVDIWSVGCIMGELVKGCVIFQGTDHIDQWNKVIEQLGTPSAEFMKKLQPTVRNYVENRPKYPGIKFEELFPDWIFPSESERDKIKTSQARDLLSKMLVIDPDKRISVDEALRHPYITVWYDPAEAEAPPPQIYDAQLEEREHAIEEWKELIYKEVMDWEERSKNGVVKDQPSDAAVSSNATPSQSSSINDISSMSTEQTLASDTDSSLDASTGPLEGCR

[27] = molecular target: EPHB3 (human) (UniProt P54753)
[28] = molecular target: IKBKB (human) (UniProt O14920)
[29] = molecular target: CAMKK2 (human) (UniProt Q96RR4)
CAMKK2 (human), sequence (Q96RR4 whole entry, looked up): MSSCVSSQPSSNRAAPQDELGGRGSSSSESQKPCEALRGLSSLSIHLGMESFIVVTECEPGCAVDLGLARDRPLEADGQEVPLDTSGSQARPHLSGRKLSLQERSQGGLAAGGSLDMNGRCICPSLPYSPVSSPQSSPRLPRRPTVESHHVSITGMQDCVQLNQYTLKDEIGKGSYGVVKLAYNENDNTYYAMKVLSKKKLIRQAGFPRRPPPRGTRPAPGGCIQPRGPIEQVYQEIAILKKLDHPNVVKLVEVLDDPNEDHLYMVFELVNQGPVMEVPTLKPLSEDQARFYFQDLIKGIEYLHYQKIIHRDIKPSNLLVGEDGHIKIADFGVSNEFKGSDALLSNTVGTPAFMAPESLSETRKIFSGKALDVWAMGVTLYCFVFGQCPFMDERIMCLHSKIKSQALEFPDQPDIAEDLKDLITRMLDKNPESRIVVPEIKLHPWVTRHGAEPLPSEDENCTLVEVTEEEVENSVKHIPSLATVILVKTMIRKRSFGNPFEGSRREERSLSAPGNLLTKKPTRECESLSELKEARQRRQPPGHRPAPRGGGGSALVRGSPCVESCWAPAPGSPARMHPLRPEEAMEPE

[30] = molecular target: EPHB2 (human) (UniProt P29323)
[31] = molecular target: PAK7 (human) (UniProt Q9P286)
[32] = molecular target: PRKACA (human) (UniProt P17612)
[33] = molecular target: CSNK1D (human) (UniProt P48730)
CSNK1D (human), sequence (P48730 whole entry, looked up): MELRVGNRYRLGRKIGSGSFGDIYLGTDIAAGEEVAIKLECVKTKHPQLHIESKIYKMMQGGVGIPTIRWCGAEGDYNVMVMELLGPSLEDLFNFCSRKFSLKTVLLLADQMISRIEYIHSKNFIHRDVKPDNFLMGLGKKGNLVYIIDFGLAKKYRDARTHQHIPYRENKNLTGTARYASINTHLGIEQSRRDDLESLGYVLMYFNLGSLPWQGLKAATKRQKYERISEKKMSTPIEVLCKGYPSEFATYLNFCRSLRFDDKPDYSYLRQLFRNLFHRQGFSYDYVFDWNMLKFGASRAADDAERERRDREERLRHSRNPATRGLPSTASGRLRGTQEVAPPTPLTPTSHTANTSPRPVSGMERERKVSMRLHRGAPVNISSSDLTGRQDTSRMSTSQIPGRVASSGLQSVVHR

[34] = molecular target: AURKB (human) (UniProt Q96GD4)
[35] = molecular target: MAPK15 (human) (UniProt Q8TD08)

MAPK8 (human), sequence (P45983 whole entry, looked up): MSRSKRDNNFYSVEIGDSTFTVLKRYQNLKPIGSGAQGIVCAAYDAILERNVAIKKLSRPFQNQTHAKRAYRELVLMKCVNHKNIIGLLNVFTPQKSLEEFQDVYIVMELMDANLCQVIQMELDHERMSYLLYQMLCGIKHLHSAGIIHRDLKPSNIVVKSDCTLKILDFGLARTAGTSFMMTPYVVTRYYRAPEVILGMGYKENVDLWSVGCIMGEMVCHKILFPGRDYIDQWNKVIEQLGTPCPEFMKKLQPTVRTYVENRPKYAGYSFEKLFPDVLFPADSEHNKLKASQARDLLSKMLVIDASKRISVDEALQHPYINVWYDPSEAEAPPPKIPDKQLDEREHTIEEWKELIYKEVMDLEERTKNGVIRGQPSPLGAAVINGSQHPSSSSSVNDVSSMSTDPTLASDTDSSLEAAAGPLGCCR
MAPK12 (human), sequence (P53778 whole entry, looked up): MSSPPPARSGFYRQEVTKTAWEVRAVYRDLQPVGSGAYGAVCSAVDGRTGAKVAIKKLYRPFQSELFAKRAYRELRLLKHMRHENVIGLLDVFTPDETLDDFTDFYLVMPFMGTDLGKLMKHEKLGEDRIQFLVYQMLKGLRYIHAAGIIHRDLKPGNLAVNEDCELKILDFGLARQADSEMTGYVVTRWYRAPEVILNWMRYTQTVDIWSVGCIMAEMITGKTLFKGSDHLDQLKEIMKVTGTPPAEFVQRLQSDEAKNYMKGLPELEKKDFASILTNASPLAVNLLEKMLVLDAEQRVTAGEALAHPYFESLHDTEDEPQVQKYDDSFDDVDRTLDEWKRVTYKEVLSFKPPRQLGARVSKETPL
MAPKAPK5 (human), sequence (Q8IW41 whole entry, looked up): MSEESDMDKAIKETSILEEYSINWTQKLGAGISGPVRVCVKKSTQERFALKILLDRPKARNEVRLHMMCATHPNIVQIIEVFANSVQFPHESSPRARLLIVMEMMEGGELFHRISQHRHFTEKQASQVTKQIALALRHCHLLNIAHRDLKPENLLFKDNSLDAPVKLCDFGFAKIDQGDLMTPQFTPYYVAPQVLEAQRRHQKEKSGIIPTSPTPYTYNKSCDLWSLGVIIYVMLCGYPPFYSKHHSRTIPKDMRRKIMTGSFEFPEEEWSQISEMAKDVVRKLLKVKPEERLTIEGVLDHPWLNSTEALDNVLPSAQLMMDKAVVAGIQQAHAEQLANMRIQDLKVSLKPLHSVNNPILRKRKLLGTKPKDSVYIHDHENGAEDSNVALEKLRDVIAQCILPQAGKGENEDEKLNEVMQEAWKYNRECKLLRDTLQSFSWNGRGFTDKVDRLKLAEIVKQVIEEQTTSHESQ

CCn1c(-c2nonc2N)nc2cncc(CNC3CCNCC3)c21
residual activity ([1]; compound 0.1 µM): 119% | residual activity ([1]; compound 1.0 µM): 112% | residual activity ([1]; compound 10.0 µM): 109% | residual activity ([2]; compound 0.1 µM): 92% | residual activity ([2]; compound 1.0 µM): 73% | residual activity ([2]; compound 10.0 µM): 35% | residual activity ([3]; compound 1.0 µM): 111% | residual activity ([3]; compound 10.0 µM): 89% | residual activity ([4]; compound 0.1 µM): 112% | residual activity ([4]; compound 1.0 µM): 105% | residual activity ([4]; compound 10.0 µM): 101% | residual activity ([5]; compound 0.1 µM): 94% | residual activity ([5]; compound 1.0 µM): 95% | residual activity ([5]; compound 10.0 µM): 96% | residual activity ([6]; compound 0.1 µM): 101% | residual activity ([6]; compound 1.0 µM): 95% | residual activity ([6]; compound 10.0 µM): 94% | residual activity ([7]; compound 0.1 µM): 94% | residual activity ([7]; compound 1.0 µM): 35% | residual activity ([7]; compound 10.0 µM): 7% | residual activity ([8]; compound 0.1 µM): 111% | residual activity ([8]; compound 1.0 µM): 110% | residual activity ([8]; compound 10.0 µM): 115% | residual activity ([9]; compound 0.1 µM): 110% | residual activity ([9]; compound 1.0 µM): 116% | residual activity ([9]; compound 10.0 µM): 77% | residual activity ([10]; compound 0.1 µM): 108% | residual activity ([10]; compound 1.0 µM): 98% | residual activity ([10]; compound 10.0 µM): 86% | residual activity ([11]; compound 1.0 µM): 109% | residual activity ([12]; compound 0.1 µM): 86% | residual activity ([12]; compound 1.0 µM): 77% | residual activity ([12]; compound 10.0 µM): 77% | residual activity ([13]; compound 0.1 µM): 112% | residual activity ([13]; compound 1.0 µM): 104% | residual activity ([13]; compound 10.0 µM): 102% | residual activity ([14]; compound 0.1 µM): 119% | residual activity ([14]; compound 1.0 µM): 109% | residual activity ([14]; compound 10.0 µM): 109% | residual activity ([15]; compound 0.1 µM): 71% | residual activity ([15]; compound 1.0 µM): 40% | residual activity ([15]; compound 10.0 µM): 26% | residual activity ([16]; compound 0.1 µM): 107% | residual activity ([16]; compound 1.0 µM): 96% | residual activity ([16]; compound 10.0 µM): 72% | residual activity ([17]; compound 0.1 µM): 95% | residual activity ([17]; compound 1.0 µM): 94% | residual activity ([17]; compound 10.0 µM): 82% | residual activity ([18]; compound 0.1 µM): 92% | residual activity ([18]; compound 1.0 µM): 93% | residual activity ([18]; compound 10.0 µM): 112% | residual activity ([19]; compound 0.1 µM): 91% | residual activity ([19]; compound 1.0 µM): 81% | residual activity ([19]; compound 10.0 µM): 41% | residual activity ([20]; compound 0.1 µM): 89% | residual activity ([20]; compound 1.0 µM): 95% | residual activity ([20]; compound 10.0 µM): 98% | residual activity ([21]; compound 0.1 µM): 96% | residual activity ([21]; compound 1.0 µM): 107% | residual activity ([21]; compound 10.0 µM): 105% | residual activity ([22]; compound 0.1 µM): 112% | residual activity ([22]; compound 1.0 µM): 82% | residual activity ([22]; compound 10.0 µM): 43% | residual activity ([23]; compound 0.1 µM): 98% | residual activity ([24]; compound 0.1 µM): 87% | residual activity ([24]; compound 1.0 µM): 89% | residual activity ([24]; compound 10.0 µM): 53% | residual activity ([25]; compound 1.0 µM): 96% | residual activity ([25]; compound 10.0 µM): 79% | residual activity ([26]; compound 0.1 µM): 109% | residual activity ([26]; compound 1.0 µM): 103% | residual activity ([26]; compound 10.0 µM): 95% | residual activity ([27]; compound 0.1 µM): 81% | residual activity ([27]; compound 1.0 µM): 99% | residual activity ([27]; compound 10.0 µM): 83% | residual activity ([28]; compound 0.1 µM): 98% | residual activity ([28]; compound 1.0 µM): 97% | residual activity ([28]; compound 10.0 µM): 100% | residual activity ([29]; compound 1.0 µM): 128% | residual activity ([29]; compound 10.0 µM): 105% | residual activity ([30]; compound 0.1 µM): 115% | residual activity ([30]; compound 1.0 µM): 91% | residual activity ([30]; compound 10.0 µM): 87% | residual activity ([31]; compound 0.1 µM): 93% | residual activity ([31]; compound 1.0 µM): 100% | residual activity ([31]; compound 10.0 µM): 98% | residual activity ([32]; compound 0.1 µM): 79% | residual activity ([32]; compound 1.0 µM): 33% | residual activity ([32]; compound 10.0 µM): 8% | residual activity ([33]; compound 0.1 µM): 102% | residual activity ([33]; compound 1.0 µM): 91% | residual activity ([33]; compound 10.0 µM): 61% | residual activity ([34]; compound 0.1 µM): 85% | residual activity ([34]; compound 1.0 µM): 76% | residual activity ([34]; compound 10.0 µM): 71% | residual activity ([35]; compound 0.1 µM): 95% | residual activity ([35]; compound 1.0 µM): 62% | residual activity ([35]; compound 10.0 µM): 27%

CN(C)C/C=C/C(=O)Nc1cccc(C(=O)Nc2ccc(Nc3nccc(-c4cccnc4)n3)cc2)c1
residual activity ([1]; compound 0.1 µM): 90% | residual activity ([1]; compound 1.0 µM): 103% | residual activity ([2]; compound 0.1 µM): 97% | residual activity ([2]; compound 1.0 µM): 85% | residual activity ([3]; compound 0.1 µM): 79% | residual activity ([3]; compound 1.0 µM): 59% | residual activity ([4]; compound 0.1 µM): 9% | residual activity ([4]; compound 1.0 µM): 4% | residual activity ([5]; compound 0.1 µM): 96% | residual activity ([5]; compound 1.0 µM): 85% | residual activity ([6]; compound 0.1 µM): 98% | residual activity ([6]; compound 1.0 µM): 113% | residual activity ([7]; compound 0.1 µM): 97% | residual activity ([7]; compound 1.0 µM): 114% | residual activity ([8]; compound 0.1 µM): 97% | residual activity ([8]; compound 1.0 µM): 98% | residual activity ([9]; compound 0.1 µM): 92% | residual activity ([10]; compound 0.1 µM): 80% | residual activity ([10]; compound 1.0 µM): 58% | residual activity ([11]; compound 0.1 µM): 92% | residual activity ([11]; compound 1.0 µM): 105% | residual activity ([12]; compound 1.0 µM): 42% | residual activity ([13]; compound 0.1 µM): 91% | residual activity ([13]; compound 1.0 µM): 106% | residual activity ([14]; compound 0.1 µM): 87% | residual activity ([14]; compound 1.0 µM): 92% | residual activity ([15]; compound 0.1 µM): 71% | residual activity ([15]; compound 1.0 µM): 48% | residual activity ([16]; compound 0.1 µM): 92% | residual activity ([16]; compound 1.0 µM): 69% | residual activity ([17]; compound 0.1 µM): 67% | residual activity ([17]; compound 1.0 µM): 39% | residual activity ([18]; compound 1.0 µM): 85% | residual activity ([19]; compound 0.1 µM): 94% | residual activity ([19]; compound 1.0 µM): 86% | residual activity ([20]; compound 1.0 µM): 103% | residual activity ([21]; compound 1.0 µM): 102% | residual activity ([22]; compound 0.1 µM): 85% | residual activity ([22]; compound 1.0 µM): 46% | residual activity ([23]; compound 0.1 µM): 87% | residual activity ([23]; compound 1.0 µM): 102% | residual activity ([24]; compound 1.0 µM): 56% | residual activity ([25]; compound 0.1 µM): 84% | residual activity ([25]; compound 1.0 µM): 66% | residual activity ([26]; compound 0.1 µM): 81% | residual activity ([26]; compound 1.0 µM): 19% | residual activity ([27]; compound 0.1 µM): 101% | residual activity ([28]; compound 0.1 µM): 76% | residual activity ([28]; compound 1.0 µM): 63% | residual activity ([29]; compound 0.1 µM): 87% | residual activity ([29]; compound 1.0 µM): 35% | residual activity ([30]; compound 0.1 µM): 101% | residual activity ([30]; compound 1.0 µM): 103% | residual activity ([31]; compound 0.1 µM): 89% | residual activity ([31]; compound 1.0 µM): 91% | residual activity ([32]; compound 0.1 µM): 97% | residual activity ([32]; compound 1.0 µM): 108% | residual activity ([33]; compound 0.1 µM): 63% | residual activity ([33]; compound 1.0 µM): 33% | residual activity ([34]; compound 0.1 µM): 74% | residual activity ([34]; compound 1.0 µM): 73% | residual activity ([35]; compound 0.1 µM): 46% | residual activity ([35]; compound 1.0 µM): 20%
